Experimental data as given in ChEMBL document CHEMBL3046890, “Synthesis and Herbicidal Activity of Sulfonylureas; SL-950 and Its Related Compounds” (1995).

Assays:
Type in all cases: functional
Amaranthus viridis [1] = assay: Post-emergence herbicidal activity against three-leaf stage Amaranthus viridis assessed as efficacy of weed growth control at 60 g ai/ha under greenhouse conditions
Galinsoga quadriradiata [2] = assay: Post-emergence herbicidal activity against four-leafstage of Galinsoga quadriradiata assessed as efficacy of weed growth control at 60 g ai/ha under greenhouse conditions
Digitaria sanguinalis [3] = assay: Post-emergence herbicidal activity against two-leaf stage Digitaria sanguinalis (hairy crabgrass) assessed as efficacy of weed growth control at 40 g ai/ha under greenhouse conditions
Persicaria lapathifolia [4] = assay: Post-emergence herbicidal activity against three-leaf stage Persicaria lapathifolia assessed as efficacy of weed growth control at 80 g ai/ha under greenhouse conditions
Cyperus microiria [5] = assay: Post-emergence herbicidal activity against three-leaf stage Cyperus microiria assessed as efficacy of weed growth control at 80 g ai/ha under greenhouse conditions
Sida spinosa [6] = assay: Post-emergence herbicidal activity against two-leaf stage Sida spinosa assessed as efficacy of weed growth control at 40 g ai/ha under greenhouse conditions
Setaria viridis = assay: Post-emergence herbicidal activity against two-leaf stage Setaria viridis (green foxtail) assessed as efficacy of weed growth control at 750 g ai/ha under greenhouse conditions
Chenopodium album [7] = assay: Post-emergence herbicidal activity against two-leaf stage Chenopodium album assessed as efficacy of weed growth control at 750 g ai/ha under greenhouse conditions
Cyperus rotundus = assay: Post-emergence herbicidal activity against four to five-leaf stage Cyperus rotundus assessed as efficacy of weed growth control at 80 g ai/ha under greenhouse conditions
Senna tora [8] = assay: Post-emergence herbicidal activity against one-leaf stage Senna tora assessed as efficacy of weed growth control at 60 g ai/ha under greenhouse conditions
Cyperus microiria [9] = assay: Post-emergence herbicidal activity against three-leaf stage Cyperus microiria assessed as efficacy of weed growth control at 60 g ai/ha under greenhouse conditions
Capsella bursa-pastoris [10] = assay: Post-emergence herbicidal activity against four-leafstage Capsella bursa-pastoris assessed as efficacy of weed growth control at 750 g ai/ha under greenhouse conditions
Avena fatua [11] = assay: Post emergence herbicidal activity against three-leaf stage Avena fatua assessed as efficacy of weed growth control at 40 g ai/ha under greenhouse conditions
Stellaria media [12] = assay: Post-emergence herbicidal activity against eight-leaf stage Stellaria media assessed as efficacy of weed growth control at 750 g ai/ha under greenhouse conditions
Persicaria lapathifolia [13] = assay: Post-emergence herbicidal activity against three-leaf stage Persicaria lapathifolia assessed as efficacy of weed growth control at 60 g ai/ha under greenhouse conditions
Elymus repens [14] = assay: Post-emergence herbicidal activity against three to four-leaf stage Elymus repens (couch grass) assessed as efficacy of weed growth control at 750 g ai/ha under greenhouse conditions
Digitaria sanguinalis [15] = assay: Post-emergence herbicidal activity against two-leaf stage Digitaria sanguinalis (hairy crabgrass) assessed as efficacy of weed growth control at 750 g ai/ha under greenhouse conditions
Senna tora [16] = assay: Post-emergence herbicidal activity against one-leaf stage Senna tora assessed as efficacy of weed growth control at 40 g ai/ha under greenhouse conditions
Sorghum halepense [17] = assay: Post emergence herbicidal activity against four to five-leaf stage Sorghum halepense (Johnson grass) assessed as efficacy of weed growth control at 60 g ai/ha under greenhouse conditions
Avena fatua [18] = assay: Post emergence herbicidal activity against three-leaf stage Avena fatua assessed as efficacy of weed growth control at 60 g ai/ha under greenhouse conditions
Capsella bursa-pastoris [19] = assay: Post-emergence herbicidal activity against four-leaf stage Capsella bursa-pastoris assessed as efficacy of weed growth control at 80 g ai/ha under greenhouse conditions
Galinsoga quadriradiata [20] = assay: Post-emergence herbicidal activity against four-leafstage of Galinsoga quadriradiata assessed as efficacy of weed growth control at 80 g ai/ha under greenhouse conditions
Abutilon theophrasti [21] = assay: Post-emergence herbicidal activity against one-leaf stage Abutilon theophrasti (velvetleaf) assessed as efficacy of weed growth control at 80 g ai/ha under greenhouse conditions
Stellaria media [22] = assay: Post-emergence herbicidal activity against eight-leaf stage Stellaria media assessed as efficacy of weed growth control at 40 g ai/ha under greenhouse conditions
Solanum nigrum = assay: Post emergence herbicidal activity against four-leaf stage Solanum nigrum (black nightshade) assessed as efficacy of weed growth control at 80 g ai/ha under greenhouse conditions
Portulaca oleracea = assay: Post-emergence herbicidal activity against three-leaf stage Portulaca oleracea assessed as efficacy of weed growth control at 60 g ai/ha under greenhouse conditions
Echinochloa crus-galli = assay: Post emergence herbicidal activity against three-leaf stage Echinochloa crus-galli (barnyard grass) assessed as efficacy of weed growth control at 750 g ai/ha under greenhouse conditions
Digitaria sanguinalis [23] = assay: Post-emergence herbicidal activity against two-leaf stage Digitaria sanguinalis (hairy crabgrass) assessed as efficacy of weed growth control at 60 g ai/ha under greenhouse conditions
Stellaria media [24] = assay: Post-emergence herbicidal activity against eight-leaf stage Stellaria media assessed as efficacy of weed growth control at 60 g ai/ha under greenhouse conditions
Abutilon theophrasti [25] = assay: Post-emergence herbicidal activity against one-leaf stage Abutilon theophrasti (velvetleaf) assessed as efficacy of weed growth control at 750 g ai/ha under greenhouse conditions
Elymus repens [26] = assay: Post-emergence herbicidal activity against three to four-leaf stage Elymus repens (couch grass) assessed as efficacy of weed growth control at 40 g ai/ha under greenhouse conditions
Chenopodium album [27] = assay: Post-emergence herbicidal activity against two-leaf stage Chenopodium album assessed as efficacy of weed growth control at 60 g ai/ha under greenhouse conditions
Sida spinosa [28] = assay: Post-emergence herbicidal activity against two-leaf stage Sida spinosa assessed as efficacy of weed growth control at 750 g ai/ha under greenhouse conditions
Amaranthus viridis [29] = assay: Post-emergence herbicidal activity against three-leaf stage Amaranthus viridis assessed as efficacy of weed growth control at 750 g ai/ha under greenhouse conditions
Chenopodium album [30] = assay: Post-emergence herbicidal activity against two-leaf stage Chenopodium album assessed as efficacy of weed growth control at 80 g ai/ha under greenhouse conditions
Capsella bursa-pastoris [31] = assay: Post-emergence herbicidal activity against four-leafstage Capsella bursa-pastoris assessed as efficacy of weed growth control at 60 g ai/ha under greenhouse conditions
Amaranthus viridis [32] = assay: Post-emergence herbicidal activity against three-leaf stage Amaranthus viridis assessed as efficacy of weed growth control at 80 g ai/ha under greenhouse conditions
Sorghum halepense [33] = assay: Post emergence herbicidal activity against four to five-leaf stage Sorghum halepense (Johnson grass) assessed as efficacy of weed growth control at 750 g ai/ha under greenhouse conditions
Eleusine indica [34] = assay: Post emergence herbicidal activity against three-leaf stage Eleusine indica assessed as efficacy of weed growth control at 40 g ai/ha under greenhouse conditions
Stellaria media [35] = assay: Post-emergence herbicidal activity against eight-leaf stage Stellaria media assessed as efficacy of weed growth control at 80 g ai/ha under greenhouse conditions
Elymus repens [36] = assay: Post-emergence herbicidal activity against three to four-leaf stage Elymus repens (couch grass) assessed as efficacy of weed growth control at 60 g ai/ha under greenhouse conditions
Eleusine indica [37] = assay: Post-emergence herbicidal activity against three-leaf stage Eleusine indica assessed as efficacy of weed growth control at 80 g ai/ha under greenhouse conditions

Structure (SMILES): COc1cc(OC)nc(NC(=O)NS(=O)(=O)c2ncccc2C(=O)N(C)C)n1 [NICOSULFURON]
- Efficacy (Amaranthus viridis [1]): 95%
- Efficacy (Galinsoga quadriradiata [2]): 95%
- Efficacy (Digitaria sanguinalis [3]): 70%
- Efficacy (Persicaria lapathifolia [4]): 95%
- Efficacy (Cyperus microiria [5]): 95%
- Efficacy (Sida spinosa [6]): 50%
- Efficacy (Setaria viridis): 70%
- Efficacy (Chenopodium album [7]): 95%
- Efficacy (Cyperus rotundus): 70%
- Efficacy (Senna tora [8]): 50%
- Efficacy (Cyperus microiria [9]): 95%
- Efficacy (Capsella bursa-pastoris [10]): 95%
- Efficacy (Avena fatua [11]): 95%
- Efficacy (Stellaria media [12]): 95%
- Efficacy (Persicaria lapathifolia [13]): 95%
- Efficacy (Elymus repens [14]): <50%
- Efficacy (Digitaria sanguinalis [15]): <50%
- Efficacy (Senna tora [16]): 50%
- Efficacy (Sorghum halepense [17]): 95%
- Efficacy (Avena fatua [18]): 95%
- Efficacy (Capsella bursa-pastoris [19]): 95%
- Efficacy (Galinsoga quadriradiata [20]): 95%
- Efficacy (Abutilon theophrasti [21]): 70%
- Efficacy (Stellaria media [22]): 70%
- Efficacy (Solanum nigrum): 70%
- Efficacy (Portulaca oleracea): 95%
- Efficacy (Echinochloa crus-galli): 50%
- Efficacy (Digitaria sanguinalis [23]): 95%
- Efficacy (Stellaria media [24]): 95%
- Efficacy (Abutilon theophrasti [25]): 95%
- Efficacy (Elymus repens [26]): 70%
- Efficacy (Chenopodium album [27]): 70%
- Efficacy (Sida spinosa [28]): 95%
- Efficacy (Amaranthus viridis [29]): 50%
- Efficacy (Chenopodium album [30]): 95%
- Efficacy (Capsella bursa-pastoris [31]): 95%
- Efficacy (Amaranthus viridis [32]): 95%
- Efficacy (Sorghum halepense [33]): <50%
- Efficacy (Eleusine indica [34]): 95%
- Efficacy (Stellaria media [35]): 95%
- Efficacy (Elymus repens [36]): 95%
- Efficacy (Eleusine indica [37]): 95%
